One compound from US20040166079A1, “N-Lauroyl amino acid composition for slimming the human body” (priority 2003, published 2004) can be followed below.

In one experiment the target is T1, human pancreatic lipase (Homo sapiens, UniProt P16233).
T1 construct: purchased SIGMA LIPASE-PS kit
T1 sequence (P16233 17-465): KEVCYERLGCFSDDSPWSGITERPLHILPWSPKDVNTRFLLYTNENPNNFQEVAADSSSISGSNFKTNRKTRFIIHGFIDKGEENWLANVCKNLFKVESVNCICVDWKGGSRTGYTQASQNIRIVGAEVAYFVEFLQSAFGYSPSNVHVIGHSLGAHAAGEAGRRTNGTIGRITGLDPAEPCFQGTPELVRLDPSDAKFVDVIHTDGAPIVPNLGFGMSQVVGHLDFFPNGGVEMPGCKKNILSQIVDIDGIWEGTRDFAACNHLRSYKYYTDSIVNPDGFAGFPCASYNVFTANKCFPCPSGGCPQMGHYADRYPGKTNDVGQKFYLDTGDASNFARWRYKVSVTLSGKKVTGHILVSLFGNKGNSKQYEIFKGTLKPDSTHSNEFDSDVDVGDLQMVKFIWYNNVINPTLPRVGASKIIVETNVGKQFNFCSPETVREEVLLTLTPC
T1 sequence (P02703 23-112 partner): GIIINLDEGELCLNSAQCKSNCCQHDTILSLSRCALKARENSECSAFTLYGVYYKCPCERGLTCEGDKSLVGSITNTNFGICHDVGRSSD
Description: Measurement of the activity of lipase (LIPASE-PS kit, absorbance 550 nm). It is filed as biochemical. The note with it: relative to the control, 8 minutes at 37° C. The procedure:
Lipase is an enzyme which degrades triglycerides to fatty acids and glycerol according to the following reaction scheme: [drawing 5]
Inside the adipocytes, the free fatty acids can thus be removed from storage. […] It is based on an enzymatic test, using a purified enzyme.
A human pancreatic lipase (SIGMA, LIPASE-PS™ kit) is incubated in the presence of a diglyceride and a reaction system to produce a coloured quinone diimine which can be assayed by spectrophotometry (550 nm). The measurement of the absorbance at 550 nm is directly proportional to the activity of the lipase.
All the […] are provided in the LIPASE-PS™ kit (SIGMA) . The product is incubated with the reaction mixture for 8 minutes at 37° C.
The reaction system used is composed of:
The results are presented in the following table as a percentage activation of the lipase relative to the control.

The target of experiment [1] is T2, hyaluronidase (SIGMA), purified from bovine testicles (Bos taurus, UniProt Q2YDK3).
T2 construct: purified from bovine testicles; purchased SIGMA; host or cells: bovine testicles
T2 sequence (Q2YDK3 36-553): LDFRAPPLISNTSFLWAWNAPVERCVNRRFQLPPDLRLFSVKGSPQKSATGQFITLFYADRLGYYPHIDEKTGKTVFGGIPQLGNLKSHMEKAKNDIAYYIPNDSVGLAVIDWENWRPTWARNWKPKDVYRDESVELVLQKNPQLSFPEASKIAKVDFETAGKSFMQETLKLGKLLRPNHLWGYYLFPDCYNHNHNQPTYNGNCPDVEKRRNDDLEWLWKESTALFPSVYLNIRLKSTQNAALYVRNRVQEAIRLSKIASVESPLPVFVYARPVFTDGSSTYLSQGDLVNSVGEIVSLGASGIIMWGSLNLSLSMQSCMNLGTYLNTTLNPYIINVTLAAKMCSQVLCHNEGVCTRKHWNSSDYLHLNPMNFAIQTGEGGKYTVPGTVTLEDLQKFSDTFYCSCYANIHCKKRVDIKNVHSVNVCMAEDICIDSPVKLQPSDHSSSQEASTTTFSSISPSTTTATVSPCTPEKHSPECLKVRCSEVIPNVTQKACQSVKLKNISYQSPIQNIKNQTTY
Briefly: Measurement of the activity of hyaluronidase (purified enzyme). The note with it: hyaluronidase test, 60 minutes at 37° C. It is filed as biochemical. The procedure: The objective of this test is to measure the activity of hyaluronidase. This enzyme, which is naturally found in the skin, degrades hyaluronic acid. The study is carried out in vitro on the purified enzyme.
The hyaluronidase (SIGMA), purified from bovine testicles, is incubated at 0.01 U/ml in the presence of hyaluronic acid at 0.02 mg/ml, with or without test product. The incubation is carried out for 60 minutes at 37° C.
Evaluation of the effects: After the incubation, the hyaluronic acid not degraded by the enzyme is precipitated by a 24 mM sodium acetate/79. mM acetic acid mixture (10 minutes, room temperature). The precipitate is measured by spectrophotometry at 590 nm.
The effect of the test products is compared to that observed in the presence of dipotassium glycyrrhizinate, a reference hyaluronidase inhibitor.

The mark [2] stands for this setting: incubation concentration 0.01 % DE.

As to `Cn1c(=O)c2c(ncn2C)n(C)c1=O` [Caffeine, 1,3,7-trimethyl-xanthine], the “Percentage activation of the lipase” value was 0% on human pancreatic lipase (setting [2]) and 10% at human pancreatic lipase (incubation concentration 0.1 % DE). The “Percentage inhibition of hyaluronidase activity” value in experiment [1] (incubation concentration 0.001 % DE) came to 15%; in experiment [1] (setting [2]), 20%.
